Reference: patent US20260248881A1, “PHARMACEUTICAL COMPOSITION COMPRISING FOXM1 INHIBITOR AND IMMUNE CHECKPOINT INHIBITOR FOR PREVENTING OR TREATING CANCER” (National Cancer Center, priority 2022, published 2026)

Key:
FOXM1 = target: T1, FOXM1 (Homo sapiens, UniProt Q08050); assay: FOXM1 inhibitors tested in H1299 and PC9 cells (FOXM1 levels); assay type: cell-based
T1 construct: host or cells: H1299 and PC9 cells
T1 sequence (Q08050 1-763): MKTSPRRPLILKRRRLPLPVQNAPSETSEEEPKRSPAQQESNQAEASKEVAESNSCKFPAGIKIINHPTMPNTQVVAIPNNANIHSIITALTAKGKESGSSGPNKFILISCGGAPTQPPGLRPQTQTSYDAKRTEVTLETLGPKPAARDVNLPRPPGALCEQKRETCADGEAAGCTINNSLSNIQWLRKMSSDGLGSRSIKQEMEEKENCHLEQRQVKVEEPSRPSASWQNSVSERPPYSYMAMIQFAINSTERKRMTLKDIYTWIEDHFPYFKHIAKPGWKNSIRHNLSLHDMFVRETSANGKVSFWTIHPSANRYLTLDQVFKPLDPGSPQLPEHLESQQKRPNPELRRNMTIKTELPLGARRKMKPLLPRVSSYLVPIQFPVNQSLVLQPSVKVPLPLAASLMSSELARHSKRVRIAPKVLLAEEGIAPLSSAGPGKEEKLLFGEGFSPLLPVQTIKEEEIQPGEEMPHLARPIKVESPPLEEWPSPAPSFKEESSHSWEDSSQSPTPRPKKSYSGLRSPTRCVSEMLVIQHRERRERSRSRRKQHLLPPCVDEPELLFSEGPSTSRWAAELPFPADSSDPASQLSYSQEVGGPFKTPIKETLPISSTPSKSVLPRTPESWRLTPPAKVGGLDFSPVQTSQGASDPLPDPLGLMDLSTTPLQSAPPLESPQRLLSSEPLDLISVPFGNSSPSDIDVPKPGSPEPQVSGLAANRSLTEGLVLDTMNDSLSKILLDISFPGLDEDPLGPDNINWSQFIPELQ
Experimental: H1299 and PC9 cells purchased from ATCC (Manassas, VA, USA) were cultured in RPMI-1640 medium (#10-040-CV; Corning, New York, NY, USA) supplemented with 10% […] (#35-010-CV; Corning) and penicillin-streptomycin antibiotic cocktail (#15240062; Thermo Fisher Scientific, Waltham, MA, USA) at 37° C. and 5% CO2.
Total RNA was extracted and purified using the RNeasy kit (#74004; QIAGEN) according to the manufacturer's protocol. Reverse transcription of mRNA was performed using a PrimeScript 1st Strand CDNA Synthesis Kit (#6110A; TaKaRa Bio, Otsu, Japan). Quantitative PCR was performed using primers specific for the CD274 and FOXM1 genes designed using Primer 3 software. A β-actin gene was used as an internal control group to normalize target gene expression.

FOXM1 and PD-L1 = FOXM1 and PD-L1 expression in MC38 cells (immunoblotting, confocal imaging); assay type: cell-based, mouse
Experimental: Human colorectal cancer cell lines (HCT116, HCT8, and SW480) and human primary coronary artery smooth muscle cells (SMCs) were purchased from the American Type Culture Collection (Manassas, VA, USA), and a MC38 mouse colorectal adenocarcinoma cell line was provided by Dr. Beom-Kyu Choi (National Cancer Center, Goyang, Republic of Korea). MC38 cells were cultured in Dulbecco's modified Eagle's medium (DMEM) supplemented with 10% FBS and 1% penicillin/streptomycin. SW480 and HCT8 cells were cultured in Roswell Park Memorial Institute (RPMI) medium supplemented with 10% FBS and 1% penicillin/streptomycin. […]
For immunoblotting analysis, protein concentrations were measured using a bicinchoninic acid kit (Cat. 23225; Thermo Fisher Scientific, Carlsbad, CA, USA). […] The appropriate secondary antibodies conjugated to horseradish peroxidase were bound to the washed membrane, and protein bands were detected using a chemiluminescence kit (Thermo Fisher Scientific, Carlsbad, CA, USA).
To confirm the dose-dependent downregulation of PD-L1 levels by TST, which is a FOXM1 inhibitor, live cell imaging was performed on PD-L1 expression in MC38 cells. […] Fluorescence images of nuclei (λex 359 nm, λem 457 nm) and PD-L1 (λex 590 nm, λem 618 nm) were obtained using a confocal scanning laser microscope (LSM780; Carl Zeiss, Oberkochen, Germany).

MC38 cells = assay: Apoptotic cell death assay (Annexin V assay), MC38; assay type: cell-based, mouse; conditions: TST 5 μM, 48 hours
Experimental: MC38 cells (8.0×10^4) were seeded in 6-well plates and cultured for 24 hours. The cells were treated with TST (5 μM) for 48 hours, harvested, and analyzed via FACS-Verse using a BD FITC Annexin V Apoptosis Detection Kit I (Cat No. 556547; BD Biosciences, San Diego, CA, USA) according to the manufacturer's protocol.

## thiostrepton [TST]
FOXM1
  FOXM1 levels: the most effective inhibitor, significantly reducing FOXM1 levels
FOXM1 and PD-L1; MC38, TST 0, 1, 5, and 10 μM, 48 hours
  level of PD-L1 in the plasma membrane: dose-dependently decreased
FOXM1 and PD-L1; MC38 mouse colorectal cancer cells
  FOXM1 and PD-L1 expression levels: dose-dependently decreased
MC38 cells
  apoptotic cell death (flow cytometry): significantly increased apoptotic cell death
